The structures appear in SMILES notation.

The target in the assay is T1, TRPV3 in CAL-29 cells (Homo sapiens, UniProt Q8NET8).
T1 construct: host or cells: CAL-29
T1 sequence (Q8NET8 1-790): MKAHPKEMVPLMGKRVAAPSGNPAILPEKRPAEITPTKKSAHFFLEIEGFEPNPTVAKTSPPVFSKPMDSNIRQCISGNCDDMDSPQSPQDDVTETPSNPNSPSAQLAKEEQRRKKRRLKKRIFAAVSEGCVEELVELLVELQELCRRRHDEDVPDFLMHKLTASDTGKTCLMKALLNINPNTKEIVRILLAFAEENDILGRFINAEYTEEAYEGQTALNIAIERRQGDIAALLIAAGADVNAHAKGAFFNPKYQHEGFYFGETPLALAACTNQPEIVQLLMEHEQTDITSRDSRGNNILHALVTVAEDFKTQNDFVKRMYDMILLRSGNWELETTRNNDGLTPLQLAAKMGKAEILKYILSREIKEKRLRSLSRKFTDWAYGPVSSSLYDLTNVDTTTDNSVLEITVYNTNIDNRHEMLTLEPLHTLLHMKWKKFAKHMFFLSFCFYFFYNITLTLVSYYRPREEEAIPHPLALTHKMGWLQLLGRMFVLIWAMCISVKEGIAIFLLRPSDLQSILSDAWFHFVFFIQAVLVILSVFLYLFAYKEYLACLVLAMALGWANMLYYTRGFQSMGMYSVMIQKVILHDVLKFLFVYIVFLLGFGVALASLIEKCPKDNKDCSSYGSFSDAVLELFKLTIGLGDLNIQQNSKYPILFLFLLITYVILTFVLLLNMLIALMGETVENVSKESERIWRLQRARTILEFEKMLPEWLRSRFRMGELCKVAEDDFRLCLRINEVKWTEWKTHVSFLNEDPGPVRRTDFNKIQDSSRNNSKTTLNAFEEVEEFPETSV
The assay is described as follows: fura-2 Ca2+ assay in CAL-29 bladder cancer cells. Type of assay: cell-based. The settings on record: 50 μM AV3-1. The procedure:
All fluorometric Ca^2+ assays were performed in HBS buffer at room temperature. The compounds of the Enamine Diversity Set were diluted in a buffer composed of 150 mM NaCl and 20 mM HEPES and added to the cells at a final concentration of 25 μM (0.5% DMSO). For the primary compound screening and the generation of concentration-response analyses, a robotic liquid handling station (Freedom Evo 150; Tecan) with a built-in custom-made fluorescence plate imager was used. HEKTRPV3 and bladder cancer cell lines were harvested and loaded with 4 μM fluo-4/AM (Invitrogen; Fisher Scientific) in cell culture medium for 30 minutes at 37 °C. […] Fluorescence was excited using a 470-nm light-emitting diode, and emitted light was imaged through a 515-nm–long pass filter with a cooled Zyla 5.5 camera (Andor). Fluorescence was recorded and processed under the control of the μ-Manager 2.0 gamma software (https://micro-manager.org.[28]). After recording baseline fluorescence, compounds were dispensed into the wells via the liquid handling device. […] For further analysis, fluorescence signals were calculated for each well, corrected for background intensities and normalized to the initial signals. […] Fluorescence signals were excited with a fiber-coupled monochromator device (Polychrome V; Till Photonics) at 340, 358, and 380 nm and calibrated as described before.[29] […]

Turning to `COC(=O)C12CN(Cc3ccccc3)CC1(C(=O)OC)CN(Cc1ccccc1)C2` (stereo not shown) [AV3-1], the “[Ca2+]i response in CAL-29 cells” value was “robust increases in [Ca^2+]i”.
